Assays:
Format in all cases: cell-based, human
[1] = system: breast cancer patient-derived spheroid cultures; test: Cell viability assay (Cell-Titer Glo) on breast cancer patient-derived spheroid cultures; conditions: 4 days exposure
Protocol: From breast cancer single cell suspension, 3×10^3 cells were seeded and cultured in an ultra-low attachment 384-well plate (Corning) with DMEM-F12 media (Thermo Fisher Scientific) containing 20% FBS and 1% PS. Treatment with A2BAR antagonist at various concentrations are stated in the Results section. After 4 days, Cell-Titer Glo reagent (Promega) was used to measure cell viability in accordance to the manufacturer’s instruction. EnSpire Multilabel Reader (PerkinElmer) was used to read the luminescence.
Figure 2 Antitumor effect of A2BAR antagonists on breast cancer patient-derived spheroid cultures. (A) Relative cell viability to untreated antagonist control spheroid cultures (n=3, mean±SD) measured by Cell-Titer Glo assay. (B) Representative real time imaging of spheroid cultures over 6 days under 4X objective, with untreated (first column) or added 12 µM concentration respective of A2BAR antagonists indicated. Red mask demarcates area with cells surrounding the spheroid. Green line indicates estimated diameter of spheroid body. (C) Relative area of the representative spheroid growth (as shown in B) normalized to day 1. Statistical analysis—2-way (A) and 1-way (C) ANOVA with Dunnett’s multiple comparisons to untreated antagonist control was performed with *p<0.05, **p<0.01, ***p<0.001, and ****p<0.0001.

[2] = system: healthy donor T cells (PBMCs) and NK cells; test: CFSE proliferation assay with exogenous adenosine; conditions: exogenous adenosine 0.1 mM, antagonist 12 µM; for Rescue of lymphocyte (T and NK cell) proliferation: 3 days (T) and 6 days (NK); for Rescue of NK cell proliferation: 6 days
Protocol: Freshly isolated PBMCs and NK cells were stained with 5 µM FITC-conjugated carboxyfluorescein succinimidyl ester (CFSE, BioLegend) in phosphate-buffered saline (PBS) (Life Technologies) at room temperature for 5 min. CSFE stained cells were washed with flow cytometer buffer three times. CSFE-labeled healthy PBMCs and NK cells were cultured in 96-well plates with X-VIVO20% and 1% PS for 3 and 6 days, respectively. Healthy PBMCs were incubated with Human T-activator CD3/CD28 beads at 1:4 ratio (Thermo Fisher Scientific) and IL-2 (Novartis) at 100 IU/mL. Healthy donor NK cells were incubated with 1000 IU/mL IL-2 only. 2×10^5 PBMCs and 5×10^4 NK cells were counted for treatment with ADO (Sigma-Aldrich) and 12 μM of A2BAR antagonist at the same day.
Figure 3 Rescue of lymphocyte proliferation by of A2BAR antagonism. Relative proliferation of: (A) CD45RA- CD4 T cells, (B) CD45RA+ CD4 T cells, (C) CD45RA- CD8 T cells, (D) CD45RA+ CD8 T cells, and (E) NK cells, after incubation with exogenous adenosine 0.1 mM and A2BAR antagonist 12 µM for 3 (A–D) and 6 (E) days. (n=10 healthy donors) CD45RA expression differentiates naïve and effector T cells from central and effector memory T cells. Box plots with minimum, first quartile, median, third quartile, and maximum are presented. Unpaired and non-parametric statistical analysis—Mann-Whitney test was performed against untreated control with *p<0.05, **p<0.01, ***p<0.001, and ****p<0.0001. (F–J) Representative CFSE histogram on the corresponding lymphocyte subset. CFSE, carboxyfluorescein succinimidyl ester.

[3] = system: CD4 and CD8 T cells (healthy donor PBMCs); test: IFNy and perforin cytokine production assay, with CD69 expression (flow cytometry); conditions: antagonist 12 µM; for IFNy production in CD8 T cells: n=6 healthy donors
Protocol: Similar experimental setup was performed as the extracellular ADO uptake assay. Cells were harvested after 2 days of CD3/CD28 bead stimulation before treatment with PMA/ionomycin (Sigma Aldrich) and golgi-inhibitors (BD biosciences). After 3 hours of subsequent incubation, intracellular staining was performed for IFNy and perforin (online supplemental table 1).
Figure 4 Rescue of lymphocyte proinflammatory cytokine production IFNy and perforin by A2BAR antagonism. (A,B) Inhibition of extracellular adenosine uptake via phosphorylated-AMP activated protein kinase (pAMPK) staining (n=7 healthy donors). Production of proinflammatory cytokines—(C,D) IFNy and (E) perforin in CD4 (n=5 healthy donors) and CD8 (n=6 healthy donors) T cells. Expression of CD69 adhesion molecule in (F). CD4 (n=7 healthy donors) and (G) CD8 (n=4 healthy donors) T cells. A2BAR antagonist 12 µM was added. Outlier is presented as diamond shape and defined by Tukey’s rule, which is not included in statistical analysis. Box plots with minimum, first quartile, median, third quartile, and maximum are presented. Normalized fold change is based on percent values compared with untreated controls. Unpaired and non-parametric statistical analysis—Mann-Whitney test was performed against untreated control with *p<0.05, **p<0.01, ***p<0.001, and ****p<0.0001.

| Structure (SMILES) | Relative cell viability of breast cancer spheroids vs untreated control ([1]; n=3) | Rescue of lymphocyte (T and NK cell) proliferation [2] | Rescue of proliferation of CD45RA+ (naïve and effector) CD8 T cells ([2]; 3 days, n=10 healthy donors) | Rescue of proliferation of CD45RA+ CD4 T cells ([2]; 3 days, n=10 healthy donors) | Rescue of proliferation of CD45RA- CD4 T cells (central and effector memory) ([2]; 3 days, n=10 healthy donors) | Rescue of NK cell proliferation ([2]; n=10 healthy donors) | IFNy production in CD4 T cells ([3]; exogenous adenosine, n=5 healthy donors) | IFNy production in CD8 T cells ([3]; exogenous adenosine) | Rescue of proliferation of T cell subsets ([2]; 3 days, n=10 healthy donors) | IFNy production by T cells on adenosine suppression (subset not given) ([3]; exogenous adenosine) | Perforin production by CD8 T cells on adenosine suppression ([3]; exogenous adenosine) | Perforin production by CD8 T cells on adenosine suppression ([3]; exogenous adenosine, listed as ISAM–R56A) | Relative cell viability of breast cancer spheroids vs untreated control ([1]; n=3, listed as ISAM–M89A) | CD69 expression in CD8 T cells ([3]; n=4 healthy donors) | CD69 expression in CD4 T cells ([3]; n=7 healthy donors) |
| --- | --- | --- | --- | --- | --- | --- | --- | --- | --- | --- | --- | --- | --- | --- | --- |
| CC1=C(C(=O)OC(C)C)C(c2ccco2)n2c(nc3ccccc32)N1 (centres unmarked) [ISAM-140, isopropyl 4-(furan-2-yl)−2-methyl-1,4-dihydrobenzo[4 5] imidazo[1,2 a]pyrimidine-3-carboxylate] | significantly reduced | improved immune cell proliferation | rescued the proliferation | rescued the proliferation | rescued the proliferation | rescued the proliferation | upregulated IFNy production | upregulated IFNy production |  |  |  |  |  |  |  |
| CC1=C(C(=O)OC(C)C)C(c2ccco2)n2c(nc3ccccc32)N1Cc1ccccc1F (centres unmarked) [ISAM-R56A] | significantly reduced |  |  |  |  | significantly rescued |  | significantly rescued | did not restore the proliferation | significantly improved | significantly improved | significantly rescued |  |  |  |
| CC1=C(C(=O)OC(C)C)C(c2ccoc2)n2c(nc3cc(Cl)ccc32)N1 (centres unmarked) [ISAM-M89A] | more pronounced effect | did not restore the proliferation |  |  |  |  |  |  |  |  |  |  | significantly reduced | positive effect | positive effect |

From PMC9115112, “A2B adenosine receptor antagonists rescue lymphocyte activity in adenosine-producing patient-derived cancer models” (Journal for Immunotherapy of Cancer, 2022)
